The values below come from patent US20220144775A1, “HYDRAZIDE COMPOUND AND KINASE INHIBITOR” (NISSAN CHEMICAL CORPORATION, priority 2019, published 2022).

One assay has as its target T1, LATS1 (Homo sapiens, UniProt O95835).
T1 construct: purchased Carna Biosciences
T1 sequence (O95835 1-1130): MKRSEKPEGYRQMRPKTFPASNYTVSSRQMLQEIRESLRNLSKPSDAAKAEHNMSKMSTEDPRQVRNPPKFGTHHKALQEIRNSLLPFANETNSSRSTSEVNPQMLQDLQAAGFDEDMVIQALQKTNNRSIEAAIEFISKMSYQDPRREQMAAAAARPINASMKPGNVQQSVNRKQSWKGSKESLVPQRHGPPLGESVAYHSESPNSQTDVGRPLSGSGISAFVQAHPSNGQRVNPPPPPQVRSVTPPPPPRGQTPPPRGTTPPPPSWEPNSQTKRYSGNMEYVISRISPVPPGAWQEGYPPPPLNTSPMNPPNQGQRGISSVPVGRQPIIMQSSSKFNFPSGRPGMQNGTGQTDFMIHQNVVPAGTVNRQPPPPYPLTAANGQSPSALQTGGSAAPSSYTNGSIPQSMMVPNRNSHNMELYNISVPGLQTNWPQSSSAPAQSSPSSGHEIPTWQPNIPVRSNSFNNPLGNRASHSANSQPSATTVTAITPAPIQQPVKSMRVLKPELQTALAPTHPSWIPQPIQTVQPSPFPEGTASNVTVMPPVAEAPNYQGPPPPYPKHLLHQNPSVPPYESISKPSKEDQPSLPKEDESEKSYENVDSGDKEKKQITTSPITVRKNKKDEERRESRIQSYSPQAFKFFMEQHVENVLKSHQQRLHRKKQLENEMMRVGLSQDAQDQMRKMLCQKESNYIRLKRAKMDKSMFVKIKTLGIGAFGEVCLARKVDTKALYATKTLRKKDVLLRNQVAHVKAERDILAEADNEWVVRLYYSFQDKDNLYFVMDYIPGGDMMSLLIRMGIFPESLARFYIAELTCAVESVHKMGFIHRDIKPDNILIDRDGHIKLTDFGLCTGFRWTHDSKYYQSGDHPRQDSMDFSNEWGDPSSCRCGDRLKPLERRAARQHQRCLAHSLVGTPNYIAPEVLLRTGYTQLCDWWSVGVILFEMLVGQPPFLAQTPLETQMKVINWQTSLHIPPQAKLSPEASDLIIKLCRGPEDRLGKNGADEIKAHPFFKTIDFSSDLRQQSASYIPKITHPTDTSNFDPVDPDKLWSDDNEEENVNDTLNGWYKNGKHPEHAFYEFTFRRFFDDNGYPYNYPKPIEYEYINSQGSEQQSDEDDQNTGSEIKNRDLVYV
As to the kind of experiment: Kinase inhibitory activity against LATS1 (ADP quantification). Type of assay: biochemical. To be noted: ATP 400 μM, read-out: kinase inhibitory rate; for inhibition at 1 µM: final concentration 1000 nM. The method, then:
(§1) Evaluation of the inhibitory activity (calculation of kinase inhibitory rate) of the compound of the present invention against LATS1 and LATS2 (manufactured by Carna Biosciences) was performed. The activity was measured using the Kinase Assay method described below. The test concentration of the compound of the present invention was set such that the final concentration was 100 nM or 1000 nM.
(§2) As the analysis method of the data, the mean signal of the control well containing reaction components other than the compound of the present invention was set to 0% inhibition, the mean signal without enzyme addition was set to 100% inhibition, and the inhibition rate was calculated from the mean signal of 2 wells of each compound.
(§3) 2 μL of a compound of the present invention solution at 2.5-fold concentration, 1 μL of substrate at 5-fold concentration (SGKtide: NH2-CKKRNRRLSVA-COOH, manufactured by SignalChem), ATP (manufactured by Sigma-Aldrich), MgCl2 (manufactured by FUJIFILM Wako Pure Chemical Corporation) solution (final concentration 10 μM, 400 μM and 5 mM, respectively), and 2 μL of kinase solution at 2.5-fold concentration (final concentration of LATS1 or LATS2 5 μg/mL), each prepared with assay buffer (20 mM HEPES, 0.01% Triton X-100, 2 mM DTT, 50 μg/mL BSA, pH 7.5), were mixed in the wells of a polypropylene 384-well plate (manufactured by Greiner Bio-One, #784900) and reacted at room temperature for 5 hr. To the solution was added 5 μL detection solution [Fluorospark (registered trade mark) Kinase/ADP Multi-Assay Kit; manufactured by FUJIFILM Wako Pure Chemical Corporation], and the mixture was reacted at room temperature for 30 min. Successively, 5 μL of a reaction quenching liquid [Fluorospark (registered trade mark) Kinase/ADP Multi-Assay Kit; manufactured by FUJIFILM Wako Pure Chemical Corporation] was added to discontinue the reaction. Thereafter, the ADP concentration of the reaction solution was quantified by EnSpire (manufactured by PerkinElmer) to detect the kinase reaction.

Another assay concerns the target T2, LATS2 (Homo sapiens, UniProt Q9NRM7).
T2 construct: purchased Carna Biosciences
T2 sequence (Q9NRM7 1-1088): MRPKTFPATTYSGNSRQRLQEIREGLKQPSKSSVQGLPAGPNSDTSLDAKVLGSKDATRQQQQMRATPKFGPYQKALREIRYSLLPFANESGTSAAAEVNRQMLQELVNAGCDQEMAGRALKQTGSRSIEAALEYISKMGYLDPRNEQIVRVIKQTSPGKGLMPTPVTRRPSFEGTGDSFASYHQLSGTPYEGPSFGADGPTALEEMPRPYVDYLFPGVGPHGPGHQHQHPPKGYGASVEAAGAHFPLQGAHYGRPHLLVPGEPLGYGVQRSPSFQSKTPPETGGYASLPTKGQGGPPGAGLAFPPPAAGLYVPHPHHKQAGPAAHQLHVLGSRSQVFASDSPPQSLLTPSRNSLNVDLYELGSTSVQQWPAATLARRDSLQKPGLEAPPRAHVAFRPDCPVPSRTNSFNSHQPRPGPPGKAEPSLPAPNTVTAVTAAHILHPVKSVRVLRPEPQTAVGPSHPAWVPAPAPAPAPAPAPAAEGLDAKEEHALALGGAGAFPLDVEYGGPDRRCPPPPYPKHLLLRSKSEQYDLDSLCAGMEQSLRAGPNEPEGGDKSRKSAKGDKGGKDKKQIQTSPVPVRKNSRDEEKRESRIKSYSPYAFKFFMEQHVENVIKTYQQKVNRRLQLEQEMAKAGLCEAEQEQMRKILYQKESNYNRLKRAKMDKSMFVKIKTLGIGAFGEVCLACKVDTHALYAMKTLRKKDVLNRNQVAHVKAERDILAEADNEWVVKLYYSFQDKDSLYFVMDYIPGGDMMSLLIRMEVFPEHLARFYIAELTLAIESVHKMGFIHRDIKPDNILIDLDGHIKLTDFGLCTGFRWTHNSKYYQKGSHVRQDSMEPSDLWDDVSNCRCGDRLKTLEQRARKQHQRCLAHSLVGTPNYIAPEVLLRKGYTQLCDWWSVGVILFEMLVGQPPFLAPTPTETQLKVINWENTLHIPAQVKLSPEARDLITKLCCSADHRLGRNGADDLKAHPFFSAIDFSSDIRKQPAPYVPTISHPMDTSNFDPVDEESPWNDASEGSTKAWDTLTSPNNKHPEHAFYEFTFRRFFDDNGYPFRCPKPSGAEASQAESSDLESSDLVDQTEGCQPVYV
Put plainly: Kinase inhibitory activity against LATS2 (ADP quantification). Type of assay: biochemical. Conditions: final concentration 1000 nM; ATP 400 μM; read-out: kinase inhibitory rate. The method, then: as §1, §2, §3

SMILES strings stand for the structures. Where only a bound is given, the exact number is not on record here.

Consider `CC/C(=N\NC(=O)C(C)Oc1cccnc1)c1ccc(O)c(C)c1O` (stereo not shown) [C-001, (E)-N′-(1-(2,4-dihydroxy-3-methylphenyl)propylidene)-2-(pyridin-3-yloxy)propanehydrazide], for which the inhibition at 1 µM on LATS1 and at LATS2 was no less than 40% in each case.
Turning to `CC/C(=N\NC(=O)[C@@H](C)Nc1ccc2cccnc2c1)c1ccc(O)c(C)c1O` [A-019, (R,E)-N′-[1-(2,4-dihydroxy-3-methylphenyl)propylidene]-2-(quinolin-7-ylamino)propanehydrazide], the inhibition at 0.1 µM on LATS1 (final concentration 100 nM) was no less than 40%. Besides, the inhibition at 1 µM on LATS1 and on LATS2 was no less than 40% in each case.
Regarding `CC/C(=N\NC(=O)NCc1cccnc1)c1ccc(O)c(C)c1O` [B-001, (E)-2-(1-(2,4-dihydroxy-3-methylphenyl)propylidene)-N-(pyridin-3-ylmethyl)hydrazine-1-carboxamide], the inhibition at 1 µM on LATS1 and at LATS2 was no less than 40% in each case.
